By IC50 is commonly meant the concentration needed to halve the response being measured.

Common to all, as to assay type: cell-based, human
The subject of assay [1] is SNAT2. Description: Radiolabelled proline uptake in amino acid depleted SKOV3 cells. As to conditions: for inhibition of proline uptake: 10 mM. On the procedure: (§1) Functional characterisation of plasma membrane transporters in human cancer cells was determined at 37°C using an array of radiolabelled amino acid substrates. Modified Hanks HEPES-buffered salts solution (mHBSS; 137 mM NaCl; 5.4 mM KCl; 2.7 mM K2HPO4; 1 mM CaCl2; 0.5 mM MgCl2; 0.44 mM KH2PO4; 0.4 mM MgSO4; 5 mM D-glucose; 5 mM HEPES; pH 7.4) was used to wash and incubate cells where sodium dependent transport was measured, while N-methyl-D-glucamine (NMDG) and potassium salts substituted sodium in NMDG mHBSS to measure sodium independent uptake. For the assay, cells were seeded in 35 mm dishes and, once confluent, were washed thrice with warm mHBSS solution and incubated with mHBSS containing an 100 µM amino acid at a final specific activity of ≥2000 cpm/nmol (U-[^14C]amino acids were from PerkinElmer). After 6 min, cells were washed thrice with ice-cold mHBSS, lysed with 500 µl of 0.1 M HCl, detached with a cell scraper and triturated. A 400 µl aliquot was used for scintillation counting, while the remainder was saved for protein mass quantification by Bradford assay. Transport rates were normalised to the protein content of the culture dish.
(§2) IC50 were calculated using equation y=ymax(1−x/x+IC50)

The test system of assay [2] is SNAT1/2. The experiment in a line: [14C]glutamine uptake in HCC1806 cells. Conditions: 100 µM glutamine; for Glutamine uptake: replicates 1-3. The procedure: as §1
For assay [3], the system named is SNAT1 and SNAT2. Description: High-throughput compound screen, FMP assay in 384-well format (primary, confirmatory, control compounds). As to conditions: 6 mM, 1 mM glutamine. On the procedure:
For the high-throughput compound screen, the FMP assay was adapted into a 384-well format within the ANU Centre for Therapeutic Discovery. […] Compounds Australia stores compounds under robust environmental conditions and supplies them in assay ready plate format. We screened 33,934 compounds from the Collection Scaffold Library. Cells (10,000/well) were seeded into Corning 384-well black walled plates (CLS3985; Sigma-Aldrich) using a Multidrop Combi liquid dispensing robot (Thermo Fisher) in a 40 µl volume. Once seeded, cells were allowed to grow in a microplate incubator (Liconic) for 24 h at 37°C (humidified atmosphere with 95% air and 5% CO2). Subsequently, plates were washed thrice with 50 µL of mHBSS using a 405 TS washer (BioTek). Then, 50 µl of starvation medium was added and cells were incubated again for 24 h.
Assay-ready compound plates (384 well plates containing compound or DMSO controls) were then prepared prior to addition to cells. In addition to the supplied compounds, 5 µl γ-glutamyl-hydroxamate (GHX, 60 mM dissolved in mHBSS, serving as an inhibitor control) was added into inhibitor control wells using a JANUS G3 robot (PerkinElmer). Subsequently, 25 uL of mHBSS was dispensed into all wells of the 384 well plate using a Multidrop Combi. All samples were then mixed using the JANUS G3 robot and 15 µl dispensed on top of the cell monolayer to reach a final concentration of 10.05 µM.
The FMP dye was solved freshly with mHBSS, 20 µl of which was deposited into each well using the Multidrop Combi, and the cells were incubated at room temperatur for 30 min. Each plate was then placed in an EnVision microplate reader (PerkinElmer) and a single baseline measurement was taken for each well (bottom reads excitation at 531, emission at 579 nm). The plate was then transferred to the Multidrop Combi and 10 µl/well of 5 mM glutamine was dispensed into each well. After linearly shaking for 5 s, microplates were returned to the EnVision microplate reader for a single post-injection measurement per well. The change of fluorescence was measured after 60 s.
Z′ scores were calculated from the controls onboard each of the 384-well plates assayed in the primary and secondary screen as described by Zhang et al., ([Zhang et al., 1999]). For the control inhibitor γ-glutamyl-hydroxamate (GHX) a Z’ score of 0.717 was determined, which was a sufficient signal for a HTS.

The test system of assay [4] is SNAT1 and SNAT2. The experiment in a line: FMP assay: inhibition of glutamine-induced membrane depolarisation in amino acid depleted HCC1806 cells. On the procedure: The FLIPR Membrane Potential Blue Explorer Kit (Molecular Devices) was used to characterise inhibitors and to optimise a high-throughput compound screen. Cells were seeded at approximately 60,000 cells/well on a 96-well plate and allowed to attach and grow overnight in a cell incubator. […] Cells were then washed once with mHBSS and incubated with 50 µl of the mHBSS-resuspended FMP assay dye and 50 µl of mHBSS (with or without inhibitors) and incubated at room temperature for 30 min. The plate was then placed in an EnSpire Multimode plate reader (PerkinElmer) and four sequential measurements of fluorescence were recorded as a baseline reference. Immediately after the baseline measurements were taken, 25 µl of 5 mM glutamine dissolved in mHBSS was injected into each well and the plate was shaken orbitally for 5 s before a series of consecutive fluorescence measurements were taken. The excitation wavelength was set to 530 nm and the emission was detected at 565 nm. The Δ fluorescent signal reported in the figures was taken 30 s after substrate addition. After the assay was complete, the liquid content of the plate was carefully removed, and the cell monolayer inspected to ensure it remained intact throughout the course of the assay.
as §2

The mark [5] stands for this setting: HCC1806, second column group headed UNINDUCED (c11-c19), t=-30 s, glutamine introduced at t=0, replicates 1-3.
Setting [6] is: HCC1806 UNINDUCED (c1-c9), t=0 s.
Setting [7] is: HCC1806 UNINDUCED (c1-c9), t=15 s.
[8] abbreviates: HCC1806 UNINDUCED (c1-c9), t=30 s.
The mark [9] stands for this setting: HCC1806 UNINDUCED (c1-c9), t=45 s.
[10] abbreviates: HCC1806 UNINDUCED (c1-c9), t=60 s.
Setting [11] is: HCC1806 UNINDUCED (c1-c9), t=75 s.
The mark [12] stands for this setting: HCC1806 UNINDUCED (c1-c9), t=90 s.
Setting [13] is: HCC1806 UNINDUCED (c1-c9), t=105 s.
The mark [14] stands for this setting: HCC1806 UNINDUCED (c1-c9), t=120 s.
Setting [15] is: HCC1806 UNINDUCED (c1-c9), t=135 s.
[16] abbreviates: HCC1806 UNINDUCED (c1-c9), t=-15 s.
Where [17] appears, read: HCC1806 UNINDUCED (c1-c9), t=-30 s, glutamine introduced at t=0, replicates 1-3.
The mark [18] stands for this setting: second group headed UNINDUCED (c11-c19), t=0 s.
[19] abbreviates: second group headed UNINDUCED (c11-c19), t=15 s.
Where [20] appears, read: second group headed UNINDUCED (c11-c19), t=30 s.
Setting [21] is: second group headed UNINDUCED (c11-c19), t=45 s.
Setting [22] is: second group headed UNINDUCED (c11-c19), t=60 s.
Where [23] appears, read: second group headed UNINDUCED (c11-c19), t=75 s.
[24] abbreviates: second group headed UNINDUCED (c11-c19), t=90 s.
Where [25] appears, read: second group headed UNINDUCED (c11-c19), t=105 s.
The mark [26] stands for this setting: second group headed UNINDUCED (c11-c19), t=120 s.
[27] abbreviates: second group headed UNINDUCED (c11-c19), t=135 s.
Setting [28] is: second group headed UNINDUCED (c11-c19), t=-15 s.

Where “and” joins values, the source holds several entries; their conditions need not be identical. Equal entries are not always repeated.

With `C[N+](C)(C)CC(=O)O` [Betaine, betaine], the “inhibition of proline uptake” value in assay [1] (100 µM proline, Figure 4A (24 h starvation)) is 30%; in assay [1] (Figure 4D (15 h starvation)), 60%. In addition, the “Proline uptake (nmol / mg protein x 6 min)” value in assay [1] (Figure 4A, 10mM, replicates 1-3) is 14.3516 nmol / mg protein x 6 min and 14.2805 nmol / mg protein x 6 min and 13.5695 nmol / mg protein x 6 min; in assay [1] (Figure 5B, reference inhibitors, replicates) it was 7.636 nmol / mg protein x 6 min and 7.165 nmol / mg protein x 6 min and 7.435 nmol / mg protein x 6 min and 7.421 nmol / mg protein x 6 min. Also, the Glutamine uptake in assay [2] (AA+ (growth medium)) was 37.8707 nmol / mg protein x 6 min and 45.7014 nmol / mg protein x 6 min and 38.6268 nmol / mg protein x 6 min; in assay [2] (AA- (starvation medium 24 h)), 13.5306 nmol / mg protein x 6 min and 16.7838 nmol / mg protein x 6 min and 15.0446 nmol / mg protein x 6 min. In addition, the “reduction of glutamine uptake” value in assay [2] (amino acid depleted HCC1806 cells (24 h)) worked out at 46%.

As to `N[C@@H](CCC(=O)NO)C(=O)O` [GHX, L-glutamic acid γ-monohydroxamate], the “reduction of FMP signal” value in assay [3] is 92%. Further, the “Mean (delta) fluorescence signal (%)” value is 92.4453% in assay [4] (GHX concentration 0.005); 88.1978% in assay [4] (GHX concentration 0.05); 81.9185% in assay [4] (GHX concentration 0.1); 62.0593% in assay [4] (GHX concentration 0.2); 45.7050% in assay [4] (GHX concentration 0.5); 28.4974% in assay [4] (GHX concentration 1). Further, the “Mean (delta) fluorescence signal (%)” value in assay [4] (GHX concentration 3) came out at 5.9801%. Moreover, the FMP fluorescence reading in assay [4] (setting [5]) was 80140 and 84104 and 92453; in assay [4] (setting [6]), 95009 and 106958 and 105072; in assay [4] (setting [7]), 92832 and 105585 and 105488; in assay [4] (setting [8]), 92285 and 105041 and 105362; in assay [4] (setting [9]), 92217 and 104713 and 105477; in assay [4] (setting [10]), 92501 and 104852 and 105149. Also, the FMP fluorescence reading in assay [4] (setting [11]) is 92072 and 104235 and 104746; in assay [4] (setting [12]), 91505 and 104029 and 104931; in assay [4] (setting [13]) it was 91498 and 103606 and 105160; in assay [4] (setting [14]), 91509 and 103340 and 104992; in assay [4] (setting [15]) it was 91754 and 103170 and 104515; in assay [4] (setting [16]), 94947 and 106966 and 104913. The FMP fluorescence reading in assay [4] (setting [17]) was 94749 and 106497 and 104978; in assay [4] (setting [18]), 79859 and 84357 and 91947; in assay [4] (setting [19]), 80630 and 83515 and 91899; in assay [4] (setting [20]), 79854 and 83032 and 91748; in assay [4] (setting [21]), 79700 and 82661 and 90895; in assay [4] (setting [22]), 79052 and 82273 and 90365. Besides, the FMP fluorescence reading in assay [4] (setting [23]) was 78466 and 81641 and 89825; in assay [4] (setting [24]) it was 78374 and 80769 and 89707; in assay [4] (setting [25]), 77755 and 80422 and 88694; in assay [4] (setting [26]) it was 77065 and 79988 and 88225; in assay [4] (setting [27]) it was 76289 and 79358 and 87841; in assay [4] (setting [28]), 80373 and 84318 and 91914. The compound also displayed an IC50 in assay [4] (glutamine induced depolarisation, HCC1806 AA- (24h), n = 3) of 330 ± 160 µM.

For `NC(=O)CC[C@H](N)C(=O)O` [Glutamine, glutamine], the FMP fluorescence reading in assay [4] (setting [5]) was 48604 and 53579 and 57451; in assay [4] (setting [6]) it was 80152 and 93008 and 95175; in assay [4] (setting [7]) it was 81192 and 94874 and 97430; in assay [4] (setting [8]), 81634 and 95549 and 97622; in assay [4] (setting [9]), 82112 and 96387 and 97827; in assay [4] (setting [10]), 82774 and 96256 and 98257. Besides, the FMP fluorescence reading in assay [4] (setting [11]) was 83212 and 96832 and 98303; in assay [4] (setting [12]) it was 83103 and 97466 and 98281; in assay [4] (setting [13]) it was 83167 and 97358 and 97714; in assay [4] (setting [14]), 83214 and 97405 and 97828; in assay [4] (setting [15]), 83426 and 97359 and 98137; in assay [4] (setting [16]), 80647 and 93663 and 95145. Further, the FMP fluorescence reading is 79899 and 92924 and 94884 in assay [4] (setting [17]); 48277 and 53613 and 57279 in assay [4] (setting [18]); 87410 and 95992 and 106048 in assay [4] (setting [19]); 92514 and 100953 and 110310 in assay [4] (setting [20]); 96611 and 104700 and 113605 in assay [4] (setting [21]); 98488 and 108054 and 116646 in assay [4] (setting [22]). Also, the FMP fluorescence reading is 100460 and 110105 and 118023 in assay [4] (setting [23]); 101322 and 111642 and 119920 in assay [4] (setting [24]); 102745 and 112818 and 120694 in assay [4] (setting [25]); 102428 and 112661 and 120909 in assay [4] (setting [26]); 102525 and 112308 and 120142 in assay [4] (setting [27]); 48090 and 53580 and 57674 in assay [4] (setting [28]).
